From patent US4308256A, “Method of inducing analgesia” (American Home Products Corporation, priority 1980, dated 1981)

Test system: male Charles River rats
Assay: D'Amour-Smith rat tail-flick procedure (radiant heat, 8 second cut-off), intraventricular injection
Type: in vivo
Method: Intraventricular cannulae, made of 27-gauge stainless steel tubing, are implanted in 300-400 g. male Charles River rats under pentobarbital anesthesia. After a recovery period of at least one week, the rats are restrained in a wire-mesh cylindrical chamber so that the tip of the tail can be positioned at the focal point of a radiant heat source. After an acclimatistation period of 5 minutes, the lamp is turned on and an electric clock activated. Movement of the tip of the tail exposes a photocell to the lamp, which turns off the thermal stimulus and stops the clock. If a rat fails to move its tail within 8 seconds, the heat is automatically turned off to prevent blistering. The intensity of the lamp is adjusted in each case to produce at least three baseline tail-flick latencies of 2.5-4.5 seconds. Tests are initially made every 2 minutes, then every 5 minutes and finally every 15 minutes.
Initially, using the above outlined procedure, the effects of intraventricularly administered leucine-enkephalin are tested in rats according to the above procedure.
The rat tail flick procedure is repeated, first by the simultaneous intraventricular injection of both leucine-enkephalin and bestatin and then by the initial injection of bestatin followed one hour later by the injection of leucine-enkephalin.
The above procedure is repeated again, however, the bestatin is administered first and then one hour later the leucine-enkephalin is administered.
The effects of bestatin alone are tested in rats according to the rat tail flick procedure.

Compound: CC(C)C[C@H](NC(=O)[C@@H](O)[C@H](N)Cc1ccccc1)C(=O)O [bestatin, [(2S,3R)-3-amino-2-hydroxy-4-phenylbutanoyl]-L-leucine]
- Tail-flick latency (200 μg bestatin alone into lateral ventricle, Rat 1, 2 min): 4.92 s
- Tail-flick latency (200 μg bestatin alone into lateral ventricle, Rat 1, 4 min): 7.36 s
- Tail-flick latency (200 μg bestatin into lateral ventricle, 200 μg leucine-enkephalin one hour later, 1 rat, 2 min after leucine-enkephalin): 8.00 s
- Tail-flick latency (200 μg bestatin into lateral ventricle, 200 μg leucine-enkephalin one hour later, 1 rat, 4 min after leucine-enkephalin): 8.00 s
- Tail-flick latency (200 μg bestatin into lateral ventricle, 200 μg leucine-enkephalin one hour later, 1 rat, 6 min after leucine-enkephalin): 8.00 s
- Tail-flick latency (200 μg bestatin into lateral ventricle, 200 μg leucine-enkephalin one hour later, 1 rat, 8 min after leucine-enkephalin): 8.00 s
- Tail-flick latency (200 μg bestatin into lateral ventricle, 200 μg leucine-enkephalin one hour later, 1 rat, 10 min after leucine-enkephalin): 8.00 s
- Tail-flick latency (200 μg bestatin into lateral ventricle, 200 μg leucine-enkephalin one hour later, 1 rat, 12 min after leucine-enkephalin): 8.00 s
- Tail-flick latency (200 μg bestatin into lateral ventricle, 200 μg leucine-enkephalin one hour later, 1 rat, 14 min after leucine-enkephalin): 8.00 s
- Tail-flick latency (200 μg bestatin into lateral ventricle, 200 μg leucine-enkephalin one hour later, 1 rat, 19 min after leucine-enkephalin): 8.00 s
- Tail-flick latency (200 μg bestatin into lateral ventricle, 200 μg leucine-enkephalin one hour later, 1 rat, 24 min after leucine-enkephalin): 8.00 s
- Tail-flick latency (200 μg bestatin into lateral ventricle, 200 μg leucine-enkephalin one hour later, 1 rat, 29 min after leucine-enkephalin): 8.00 s
- Tail-flick latency (200 μg bestatin into lateral ventricle, 200 μg leucine-enkephalin one hour later, 1 rat, 34 min after leucine-enkephalin): 8.00 s
- Tail-flick latency (200 μg bestatin into lateral ventricle, 200 μg leucine-enkephalin one hour later, 1 rat, 53 min after leucine-enkephalin): 8.00 s
- Tail-flick latency (200 μg bestatin into lateral ventricle, 200 μg leucine-enkephalin one hour later, 1 rat, 58 min after leucine-enkephalin): 8.00 s
- Tail-flick latency (200 μg bestatin into lateral ventricle, 200 μg leucine-enkephalin one hour later, 1 rat, 63 min after leucine-enkephalin): 6.07 s
- Tail-flick latency (200 μg bestatin into lateral ventricle, 200 μg leucine-enkephalin one hour later, 1 rat, 68 min after leucine-enkephalin): 2.62 s
- Tail-flick latency (200 μg leucine-enkephalin + 200 μg bestatin injected together into lateral ventricle, 1 rat, 2 min): 4.21 s
- Tail-flick latency (200 μg leucine-enkephalin + 200 μg bestatin injected together into lateral ventricle, 1 rat, 4 min): 5.75 s
- Tail-flick latency (200 μg leucine-enkephalin + 200 μg bestatin injected together into lateral ventricle, 1 rat, 8 min): 8.00 s
- Tail-flick latency (200 μg leucine-enkephalin + 200 μg bestatin injected together into lateral ventricle, 1 rat, 10 min): 8.00 s
- Tail-flick latency (200 μg leucine-enkephalin + 200 μg bestatin injected together into lateral ventricle, 1 rat, 12 min): 8.00 s
- Tail-flick latency (200 μg leucine-enkephalin + 200 μg bestatin injected together into lateral ventricle, 1 rat, 14 min): 8.00 s
- Tail-flick latency (200 μg leucine-enkephalin + 200 μg bestatin injected together into lateral ventricle, 1 rat, 19 min): 8.00 s
- Tail-flick latency (200 μg leucine-enkephalin + 200 μg bestatin injected together into lateral ventricle, 1 rat, 24 min): 8.00 s
- Tail-flick latency (200 μg leucine-enkephalin + 200 μg bestatin injected together into lateral ventricle, 1 rat, 29 min): 8.00 s
- Tail-flick latency (200 μg leucine-enkephalin + 200 μg bestatin injected together into lateral ventricle, 1 rat, 34 min): 8.00 s
- Tail-flick latency (200 μg leucine-enkephalin + 200 μg bestatin injected together into lateral ventricle, 1 rat, 39 min): 8.00 s
- Tail-flick latency (200 μg leucine-enkephalin + 200 μg bestatin injected together into lateral ventricle, 1 rat, 53 min): 8.00 s
- Tail-flick latency (200 μg leucine-enkephalin + 200 μg bestatin injected together into lateral ventricle, 1 rat, 58 min): 8.00 s
- Tail-flick latency (200 μg leucine-enkephalin + 200 μg bestatin injected together into lateral ventricle, 1 rat, 63 min): 4.65 s
- Tail-flick latency (200 μg leucine-enkephalin + 200 μg bestatin injected together into lateral ventricle, 1 rat, 68 min): 8.00 s
- Tail-flick latency (200 μg leucine-enkephalin + 200 μg bestatin injected together into lateral ventricle, 1 rat, 73 min): 4.95 s
- Tail-flick latency (200 μg leucine-enkephalin + 200 μg bestatin injected together into lateral ventricle, 1 rat, 78 min): 2.10 s
- Analgesia induced by bestatin alone (200 μg level, lateral ventricle, rat): does not appear to induce any clearcut analgesia
- Tail-flick latency (400 μg bestatin alone into lateral ventricle, Rat 1, 210 min): 8.00 s
- Tail-flick latency (400 μg bestatin alone into lateral ventricle, Rat 1, 225 min): 8.00 s
- Tail-flick latency (400 μg bestatin alone into lateral ventricle, Rat 1, 240 min): 8.00 s
- Tail-flick latency (400 μg bestatin alone into lateral ventricle, Rat 1, 255 min): 4.71 s
- Tail-flick latency (400 μg bestatin alone into lateral ventricle, Rat 2, 2 min): 2.16 s
- Tail-flick latency (400 μg bestatin alone into lateral ventricle, Rat 2, 4 min): 5.40 s
- Tail-flick latency (400 μg bestatin alone into lateral ventricle, Rat 2, 6 min): 4.62 s
- Tail-flick latency (400 μg bestatin alone into lateral ventricle, Rat 2, 8 min): 6.51 s
- Tail-flick latency (400 μg bestatin alone into lateral ventricle, Rat 2, 10 min): 8.00 s
- Tail-flick latency (400 μg bestatin alone into lateral ventricle, Rat 2, 12 min): 8.00 s
- Tail-flick latency (400 μg bestatin alone into lateral ventricle, Rat 2, 14 min): 8.00 s
- Tail-flick latency (400 μg bestatin alone into lateral ventricle, Rat 2, 16 min): 8.00 s
- Tail-flick latency (400 μg bestatin alone into lateral ventricle, Rat 2, 18 min): 8.00 s
- Tail-flick latency (400 μg bestatin alone into lateral ventricle, Rat 2, 20 min): 8.00 s
- Tail-flick latency (400 μg bestatin alone into lateral ventricle, Rat 2, 22 min): 8.00 s
- Tail-flick latency (400 μg bestatin alone into lateral ventricle, Rat 2, 24 min): 8.00 s
- Tail-flick latency (400 μg bestatin alone into lateral ventricle, Rat 2, 26 min): 8.00 s
- Tail-flick latency (400 μg bestatin alone into lateral ventricle, Rat 2, 28 min): 8.00 s
